Test results published in ChEMBL document CHEMBL5726992, “CGRP receptor antagonists” (2019).

Molecular target: Calcitonin-gene-related peptide receptor, CALCRL/RAMP1 (Homo sapiens, UniProt O60894+Q16602)
Test: Radioligand Binding Assay: Human CGRP receptors expressed (consisting of CRLR and RAMP1) in insect Sf21 cell membrane homogenates were re-suspended in the binding buffer (10 mM HEPES, pH 7.4, 5 mM MgCl2, 0.2% BSA) to a final assay concentration of 0.6 μg protein per well. Saturation isotherms were determined by the addition of various concentrations of 3H-telcagepant (Ho et al, The Lancet, 2008, 372, 2115) (in a total reaction volume of 250 μL) for 60 min at rt. At the end of the incubation, membranes were filtered onto a unifilter, a 96-well white microplate with bonded GF/B filter pre-incubated with 0.5% PEI, with a Tomtec cell harvester and washed 5 times with distilled water. Non-specific binding (NSB) was measured in the presence of 10 nM MK-3207 hydrochloride (CAS No. 957116-20-0). Radioactivity on the filter was counted (1 min) on a microbeta counter after addition of 50 μL of scintillation fluid. For inhibition experiments, membranes were incubated with 0.5 nM 3H-telcagepant and 10 concentrations of the inhibitory compound (0.001-10 μM). IC50 values were derived from the inhibition curve and the affinity constant (Ki) values were calculated using the Cheng-Prussoff equation (Cheng et al, Biochem. Pharmacol. 1973, 22, 3099-3108).

Chain of Calcitonin-gene-related peptide receptor, CALCRL/RAMP1 (O60894 whole entry): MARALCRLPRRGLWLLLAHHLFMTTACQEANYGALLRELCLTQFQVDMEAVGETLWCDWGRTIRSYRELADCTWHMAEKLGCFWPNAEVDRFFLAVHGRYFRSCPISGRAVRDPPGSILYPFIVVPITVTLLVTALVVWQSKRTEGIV
Chain of Calcitonin-gene-related peptide receptor, CALCRL/RAMP1 (Q16602 whole entry): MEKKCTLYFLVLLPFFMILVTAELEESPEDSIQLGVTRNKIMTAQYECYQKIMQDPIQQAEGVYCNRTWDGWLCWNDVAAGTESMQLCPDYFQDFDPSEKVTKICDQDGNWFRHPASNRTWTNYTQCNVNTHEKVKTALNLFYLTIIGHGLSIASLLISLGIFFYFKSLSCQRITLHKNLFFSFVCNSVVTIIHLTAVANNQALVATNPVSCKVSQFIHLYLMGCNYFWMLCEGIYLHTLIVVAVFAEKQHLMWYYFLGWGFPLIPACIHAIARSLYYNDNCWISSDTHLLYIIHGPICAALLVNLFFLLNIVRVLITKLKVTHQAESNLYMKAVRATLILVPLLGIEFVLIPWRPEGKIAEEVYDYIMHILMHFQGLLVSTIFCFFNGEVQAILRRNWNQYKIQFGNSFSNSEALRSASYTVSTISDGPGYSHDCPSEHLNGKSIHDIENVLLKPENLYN

Ki: 0.025 nM
Structure (SMILES): Cc1cc(C[C@@H](NC(=O)N2CCC(n3c(=O)[nH]c4ncccc43)CC2)C(=O)N[C@@H](CC2CCN(CCN(C)C)CC2)C(=O)N2CCN(c3ccncc3)CC2)cc2cn[nH]c12
